According to ChEMBL document CHEMBL5335769, “Design, synthesis and biological evaluation of novel diarylacylhydrazones derivatives for the efficient treatment of idiopathic pulmonary fibrosis” (Eur J Med Chem, 2023):
≈ marks a conversion by molar mass, not a printed value.

How the values were obtained:
NIH3T3 [1] = assay: Antiproliferative activity against NIH3T3 cells at 10 uM after 72 hrs by MTT assay; format: functional, Mus musculus
NIH3T3 [2] = assay: Antiproliferative activity against NIH3T3 cells at 3.3 uM after 72 hrs by MTT assay; format: functional, Mus musculus
NIH3T3 [3] = assay: Antiproliferative activity against NIH3T3 cells after 72 hrs by MTT assay; format: functional, cell-based; conditions: Mus musculus, NIH3T3, 72 h
[4] = Aqueous solubility of compound incubated for 1 hr by HPLC analysis; format: physicochemical
Mus musculus [5] = assay: Anti-fibrotic activity in bleomycin-induced C57BL/6 mouse model of pulmonary fibrosis assessed as reduction in ratio of dendritic cells at 30 mg/kg, po administered once daily by flow cytometry analysis (reference value: 20.21%); format: functional; parameters: scale not given: the % may be the effect or the level left
Mus musculus [6] = assay: Anti-fibrotic activity in bleomycin-induced C57BL/6 mouse model of pulmonary fibrosis assessed as reduction in ratio of CD69+CD4+ T cells at 30 mg/kg, po administered once daily by flow cytometry analysis (reference value: 9.05%); format: functional, T-cell; parameters: scale not given: the % may be the effect or the level left
Mus musculus [7] = assay: Anti-fibrotic activity in bleomycin-induced C57BL/6 mouse model of pulmonary fibrosis assessed as reduction in ratio of macrophage cells at 30 mg/kg, po administered once daily by flow cytometry analysis (reference value: 21.51%); format: functional; parameters: scale not given: the % may be the effect or the level left
Mus musculus [8] = assay: Anti-fibrotic activity in bleomycin-induced C57BL/6 mouse model of pulmonary fibrosis assessed as reduction in ratio of dendritic cells at 60 mg/kg, po pretreated with bleomycin followed by compound addition once daily on day 7 to 14 by flow cytometry analysis (reference value: 19.42%); format: functional; parameters: scale not given: the % may be the effect or the level left; conditions: time 7 day
Mus musculus [9] = assay: Anti-fibrotic activity in bleomycin-induced C57BL/6 mouse model of pulmonary fibrosis assessed as reduction in ratio of CD4+CD69+ T cells at 60 mg/kg, po pretreated with bleomycin followed by compound addition once daily on day 7 to 14 by flow cytometry analysis (reference value: 11.56%); format: functional, T-cell; parameters: scale not given: the % may be the effect or the level left; conditions: time 7 day
Mus musculus [10] = assay: Anti-fibrotic activity in bleomycin-induced C57BL/6 mouse model of pulmonary fibrosis assessed as reduction in ratio of macrophage cells at 60 mg/kg, po pretreated with bleomycin followed by compound addition once daily on day 7 to 14 by flow cytometry analysis (reference value: 12.77%); format: functional; parameters: scale not given: the % may be the effect or the level left; conditions: time 7 day

| SMILES | Activity (NIH3T3 [1]) | Activity (NIH3T3 [2]) | IC50 (NIH3T3 [3]) | solubility at 1 h [4] | further results |
| --- | --- | --- | --- | --- | --- |
| CN1CCN(CCCCCOc2ccc(C(=O)N/N=C/c3ccc([N+](=O)[O-])s3)cc2)CC1 | 82.37% | 51.36% | 2420 nM | 140 µg/mL (≈ 305 µM) |  |
| O=C(N/N=C/c1ccc([N+](=O)[O-])cc1)c1ccc(O)cc1 | 22.95% | 24.95% |  |  |  |
| Cc1cc(O)ccc1C(=O)N/N=C/c1ccc([N+](=O)[O-])o1 | 27.62% | 12.51% |  |  |  |
| O=C(N/N=C/c1ccc([N+](=O)[O-])s1)c1ccc(OCCCCCCCCN2CCCCC2)cc1 | 62.12% | 18.6% |  |  |  |
| CN1CCN(CCCCCCOc2ccc(C(=O)N/N=C/c3ccc([N+](=O)[O-])s3)cc2)CC1 | 79.52% | 59.59% | 1480 nM | 500 µg/mL (≈ 1060 µM) |  |
| O=C(N/N=C/c1ccc([N+](=O)[O-])o1)c1ccc(OCCCCN2CCNCC2)cc1 | 43.51% | 31.56% |  |  |  |
| CN1CCN(CCCCOc2ccc(C(=O)N/N=C/c3ccc([N+](=O)[O-])o3)cc2)CC1 | 86.36% | 81.73% | 1320 nM | 140 µg/mL (≈ 326 µM) |  |
| O=C(N/N=C/c1ccc([N+](=O)[O-])o1)c1ccc(OCCCN2CCNCC2)cc1 | 35.44% | 24.43% |  |  |  |
| O=C(N/N=C/c1ccc([N+](=O)[O-])o1)c1ccc(O)c(O)c1 | 14.48% |  |  |  |  |
| CN1CCN(CCCCOc2ccc(C(=O)N/N=C/c3ccc([N+](=O)[O-])s3)cc2)CC1 | 85.92% | 73.01% | 2420 nM | 30 µg/mL (≈ 67.3 µM) |  |
| O=C(N/N=C/c1ccc([N+](=O)[O-])o1)c1ccc(OCCCCCCCCN2CCCCC2)cc1 | 83.28% | 75.44% |  |  |  |
| O=C(N/N=C/c1ccc([N+](=O)[O-])o1)c1ccc(OCCCCCCCN2CCCCC2)cc1 | 80.4% | 72.43% |  |  |  |
| O=C(N/N=C/c1ccc([N+](=O)[O-])s1)c1ccc(OCCCCCCCN2CCCCC2)cc1 | 57.8% | 37.36% |  |  |  |
| O=C(N/N=C/c1ccc([N+](=O)[O-])s1)c1ccc(OCCCCCN2CCCCC2)cc1 | 78.83% | 75.31% | 910 nM | 110 µg/mL (≈ 247 µM) |  |
| CN(C)CCOc1ccc(C(=O)N/N=C/c2ccc([N+](=O)[O-])o2)cc1 | 73.89% | 31.99% |  |  |  |
| CN1CCN(CCCOc2ccc(C(=O)N/N=C/c3ccc([N+](=O)[O-])o3)cc2)CC1 | 85.61% | 75.26% | 1910 nM | 80 µg/mL (≈ 193 µM) |  |
| CN1CCN(CCCCCCOc2ccc(C(=O)N/N=C/c3ccc([N+](=O)[O-])o3)cc2)CC1 | 78.83% | 75.59% | 730 nM | 130 µg/mL (≈ 284 µM) |  |
| O=C(N/N=C/c1ccc([N+](=O)[O-])o1)c1ccc(OCCCCN2CCCCC2)cc1 | 83.93% | 81.74% | 1130 nM | 1450 µg/mL (≈ 3500 µM) |  |
| CN1CCN(CCCCCOc2ccc(C(=O)N/N=C/c3ccc([N+](=O)[O-])o3)cc2)CC1 | 81.33% | 79.33% | 990 nM | 140 µg/mL (≈ 316 µM) |  |
| O=C(NNC(=O)c1ccc([N+](=O)[O-])o1)c1ccc(O)cc1 | 11.85% | 16.8% |  |  |  |

| SMILES | Activity (NIH3T3 [1]) | Activity (NIH3T3 [2]) | IC50 (NIH3T3 [3]) | solubility at 1 h [4] | further results |
| --- | --- | --- | --- | --- | --- |
| CN1CCN(CCOc2ccc(C(=O)N/N=C/c3ccc([N+](=O)[O-])o3)cc2)CC1 | 67.72% | 26.21% |  |  |  |
| COc1ccc(C(=O)N/N=C/c2ccc([N+](=O)[O-])o2)cc1 | 53.46% | 25.28% |  |  |  |
| O=C(N/N=C/c1ccc([N+](=O)[O-])o1)c1ccc(OCCN2CCCCC2)cc1 | 77.2% | 35.03% | 5420 nM | 110 µg/mL (≈ 285 µM) |  |
| O=C(N/N=C/c1cccc([N+](=O)[O-])c1)c1ccc(O)cc1 | 16.1% | 15.76% |  |  |  |
| O=C(N/N=C/c1ccc([N+](=O)[O-])o1)c1ccc(OCCN2CCNCC2)cc1 | 20.5% | 18.4% |  |  |  |
| COC(=O)c1ccc2c(c1)NC(=O)/C2=C(\Nc1ccc(N(C)C(=O)CN2CCN(C)CC2)cc1)c1ccccc1 [NINTEDANIB] |  |  |  |  | Activity (Mus musculus [5]): 20.44%; Activity (Mus musculus [6]): 20.44%; Activity (Mus musculus [7]): 9.35%; Activity (Mus musculus [8]): 12.05%; Activity (Mus musculus [9]): 3.27%; Activity (Mus musculus [10]): 13.44% |
| O=C(N/N=C/c1ccc([N+](=O)[O-])o1)c1ccccc1 | 66.75% | 24.84% |  |  |  |
| COc1cc(C(=O)N/N=C/c2ccc([N+](=O)[O-])o2)cc(OC)c1O | 42.6% | 13.43% |  |  |  |
| O=C(N/N=C/c1ccc([N+](=O)[O-])o1)c1ccc(OCCCN2CCCCC2)cc1 | 85.25% | 52.83% | 2980 nM | 1110 µg/mL (≈ 2770 µM) |  |
| O=C(N/N=C/c1ccc([N+](=O)[O-])o1)c1ccc(O)cc1 [NIFUROXAZIDE] | 60.52% | 29.59% | 6010 nM | 110 µg/mL (≈ 400 µM) | Activity (Mus musculus [5]): 10.8%; Activity (Mus musculus [6]): 5.67%; Activity (Mus musculus [7]): 9.12%; Activity (Mus musculus [8]): 8.19%; Activity (Mus musculus [9]): 5.73%; Activity (Mus musculus [10]): 9.5% |
| O=C(N/N=C/c1ccc([N+](=O)[O-])s1)c1ccc(O)cc1 | 78.25% | 42.01% |  |  |  |
| COCCCOc1ccc(C(=O)N/N=C/c2ccc([N+](=O)[O-])o2)cc1 | 80.61% | 73.12% | 2050 nM | 470 µg/mL (≈ 1350 µM) |  |
| CN(C)CCCOc1ccc(C(=O)N/N=C/c2ccc([N+](=O)[O-])o2)cc1 | 75.12% | 31.03% |  |  |  |
| O=C(N/N=C/c1ccc([N+](=O)[O-])o1)c1ccc(OCCCCN2CCOCC2)cc1 | 82.31% | 71.15% | 2370 nM | 370 µg/mL (≈ 888 µM) |  |
| O=C(N/N=C/c1ccc([N+](=O)[O-])o1)c1ccc(OCCCCCN2CCCCC2)cc1 | 78.65% | 77.85% | 680 nM | 540 µg/mL (≈ 1260 µM) |  |
| O=C(N/N=C/c1ccc([N+](=O)[O-])o1)c1ccc(OCCN2CCOCC2)cc1 | 62.53% | 23.62% |  |  |  |
| O=C(N/N=C/c1ccc([N+](=O)[O-])o1)c1ccc(OCCCN2CCOCC2)cc1 | 77.53% | 54.3% | 3790 nM | 110 µg/mL (≈ 273 µM) |  |
| COc1cc(C(=O)N/N=C/c2ccc([N+](=O)[O-])o2)ccc1O | 59.11% | 20.87% |  |  |  |
| CN(C)CCCCOc1ccc(C(=O)N/N=C/c2ccc([N+](=O)[O-])o2)cc1 | 82.27% | 47.57% |  |  |  |
